Data on 51 compounds can be found in PMC11995724, “Antibiotic target discovery by integrated phenotypic and activity-based profiling of electrophilic fragments” (Cell chemical biology, 2025).

SMILES strings stand for the structures.

The data set is described as follows: in vitro. The note with it: human, hek293t cells.
Experimental: Mammalian cytotoxicity measurement was performed using Cell Titer-Glo 2.0 Cell Viability Assay (Promega, G9243) according to the manufacturer protocol. In brief, mammalian cells were seeded into 384-well white plates (Greiner, 781080) and incubated at 37°C for one day. Compounds from the Cys-Library were dispensed into the assay plate using epMotion 96. The plates were then incubated at 37°C for two days. An equal volume of Cell Titer-Glo 2.0 reagent was added into each well of the assay plate using epMotion 96 and incubated at 22°C for 10 min, followed by luminescence measurement using a Cytation 5 plate reader (BioTek).
By viability is commonly meant a read-out of living cells in per cent, often relative to untreated cells. Take `CC(Cl)C(=O)N[C@H](C)c1cnnn1C` (stereo partly drawn) [6-D13, 2-chloro-N-[(1R)-1-(1-methyl-1H-1,2,3-triazol-5-yl)ethyl]propanamide]: the viability at 48 h, 25 µM was determined as 103%. For the compound `Cc1ccc(C(=O)c2ccccc2NC(=O)CCl)cc1` [4-N17, 2-chloro-N-[2-(4-methylbenzoyl)phenyl]acetamide], the viability at 48 h, 25 µM turned out to be 2.4%. With `Cn1ccnc1Sc1ccc(C=C(C#N)C(N)=O)cc1[N+](=O)[O-]` [8-D03, 2-cyano-3-{4-[(1-methyl-1H-imidazol-2-yl)sulfanyl]-3-nitrophenyl}prop-2-enamide] the figure was 135%; with `Cc1ccc(Cl)c(NC(=O)CCl)c1Cl` [4-D10, 2-chloro-N-(2,6-dichloro-3-methylphenyl)acetamide], 1.7%. Regarding `C=CC(=O)NCc1nc(C2CC2)cs1` [2-A19, N-[(4-cyclopropyl-1,3-thiazol-2-yl)methyl]prop-2-enamide], the viability at 48 h, 25 µM worked out at 103%. As for `Cc1cc(C)c(NC(=O)C(C#N)=Cc2cccnc2)c(C)c1` [8-B17, 2-cyano-3-(pyridin-3-yl)-N-(2,4,6-trimethylphenyl)prop-2-enamide], the figure is 122%. On to `N#CC(=CC1=Cc2ccccc2OC1)C(=O)NCc1ccccc1` [9-F08, N-benzyl-3-(2H-chromen-3-yl)-2-cyanoprop-2-enamide], for which the viability at 48 h, 25 µM worked out at 114%. Regarding `CC(=O)NCc1ccc(C(=O)C(C)Cl)s1` (stereo not drawn) [10-M04, N-{[5-(2-chloropropanoyl)thiophen-2-yl]methyl}acetamide], the viability at 48 h, 25 µM came to 93.5%. With `CC(Cl)C(=O)NCCNC(=O)c1ccoc1` (stereo not drawn) [7-E21, 2-chloro-N-{2-[(furan-3-yl)formamido]ethyl}propanamide] the figure was 90.5%; with `C=CC(=O)N1CSCC1C(=O)N(C)C` (stereo not drawn) [1-G03, N,N-dimethyl-3-(prop-2-enoyl)-1,3-thiazolidine-4-carboxamide], 75.4%. As for `C=CC(=O)N1CC(C)c2ccc(S(N)(=O)=O)cc21` (stereo not drawn) [3-L16, 3-methyl-1-(prop-2-enoyl)-2,3-dihydro-1H-indole-6-sulfonamide], the figure is 1.43%; as for `O=C(CCl)N1CC2CCC(C1)O2` [6-M20, 2-chloro-1-{8-oxa-3-azabicyclo[3.2.1]octan-3-yl}ethan-1-one], 1.12%; as for `C=CC(=O)N(Cc1ccccc1)C1CCOc2ccc(OC)cc21` (stereo not drawn) [1-O17, N-benzyl-N-(6-methoxy-3,4-dihydro-2H-1-benzopyran-4-yl)prop-2-enamide], 71.6%. As for `N#CC(=Cc1cccnc1)C(=O)Nc1ccc(F)cc1` [8-B21, 2-cyano-N-(4-fluorophenyl)-3-(pyridin-3-yl)prop-2-enamide], the figure is 125%; as for `N#CC(=Cc1coc2ccccc2c1=O)C(=O)NCCc1ccccc1` [9-J10, 2-cyano-3-(4-oxo-4H-chromen-3-yl)-N-(2-phenylethyl)prop-2-enamide], 107%; as for `C=CC(=O)N(Cc1cc2ccccn2n1)CC1(O)CCCCC1` [1-H15, N-[(1-hydroxycyclohexyl)methyl]-N-({pyrazolo[1,5-a]pyridin-2-yl}methyl)prop-2-enamide], 102%. As to `CCc1cccc(NC(=O)CCl)c1` [4-F04, 2-chloro-N-(3-ethylphenyl)acetamide], the viability at 48 h, 25 µM came to 0.569%. With `N#CC(=Cc1ccccc1Cl)C(=O)Nc1cccc2ncccc12` [8-C15, 3-(2-chlorophenyl)-2-cyano-N-(quinolin-5-yl)prop-2-enamide] the figure was 51%; with `CC(Cl)C(=O)NCc1cc2sccc2s1` (stereo not drawn) [6-B07, 2-chloro-N-({thieno[3,2-b]thiophen-2-yl}methyl)propanamide], 109%; with `C=CC(=O)N1CCCCC1CNC(C)=O` (stereo not drawn) [2-M07, N-{[1-(prop-2-enoyl)piperidin-2-yl]methyl}acetamide], 186%. For the compound `O=C(CCl)NCCOc1cccc(F)c1` [6-G03, 2-chloro-N-[2-(3-fluorophenoxy)ethyl]acetamide], the viability at 48 h, 25 µM is 97.9%. Take `Cc1ccc(NC(=O)C(C#N)=Cc2ccc(C)s2)c(C)c1` [8-D09, 2-cyano-N-(2,4-dimethylphenyl)-3-(5-methylthiophen-2-yl)prop-2-enamide]: the viability at 48 h, 25 µM came to 99.2%. With `C=CC(=O)N1CCC(C(=O)Nc2cccc(N3CCCC3=O)c2)CC1` [2-H04, N-[3-(2-oxopyrrolidin-1-yl)phenyl]-1-(prop-2-enoyl)piperidine-4-carboxamide] the figure was 84.3%. For `O=C(CCl)Nc1ccc(Cl)cc1[N+](=O)[O-]` [5-N08, 2-chloro-N-(4-chloro-2-nitrophenyl)acetamide], the viability at 48 h, 25 µM is 76.9%. For the compound `C=CC(=O)N1CCC(C(O)c2ccnn2C)CC1` (stereo not drawn) [3-K03, 1-{4-[hydroxy(1-methyl-1H-pyrazol-5-yl)methyl]piperidin-1-yl}prop-2-en-1-one], the viability at 48 h, 25 µM is 59%. With `CC(Cl)C(=O)NC1CCCCCC1` (stereo not drawn) [5-O21, 2-chloro-N-cycloheptylpropanamide] the figure was 105%; with `C=CCNC(=O)C(C#N)=Cc1sccc1C` [9-P07, 2-cyano-3-(3-methylthiophen-2-yl)-N-(prop-2-en-1-yl)prop-2-enamide], 117%; with `Cc1nc([C@H]2CCCN2C(=O)C(C)Cl)cs1` (stereo partly drawn) [7-O04, 2-chloro-1-[(2R)-2-(2-methyl-1,3-thiazol-4-yl)pyrrolidin-1-yl]propan-1-one], 95.2%. Turning to `N#CC(=Cc1cccc(F)c1)C(=O)NCc1ccccc1` [9-K09, N-benzyl-2-cyano-3-(3-fluorophenyl)prop-2-enamide], the viability at 48 h, 25 µM is 109%. With `N#CC(=Cc1ccc(OC(F)F)cc1)C(=O)NC1CCCCC1` [9-A04, 2-cyano-N-cyclohexyl-3-[4-(difluoromethoxy)phenyl]prop-2-enamide] the figure was 66.2%; with `Cc1nn(-c2ccccc2)c(Cl)c1C=C(C#N)C(=O)NC(C)C` [9-J17, 3-(5-chloro-3-methyl-1-phenyl-1H-pyrazol-4-yl)-2-cyano-N-(propan-2-yl)prop-2-enamide], 98.2%; with `O=C(CCl)Nc1cc(C(=O)O)cc(C(=O)O)c1` [4-B04, 5-(2-chloroacetamido)benzene-1,3-dicarboxylic acid], 107%. Take `Cc1nn(CCC(=O)N2CCSSCC2)c(C)c1[N+](=O)[O-]` [10-J05, 3-(3,5-dimethyl-4-nitro-1H-pyrazol-1-yl)-1-(1,2,5-dithiazepan-5-yl)propan-1-one]: the viability at 48 h, 25 µM worked out at 96.8%. As for `CSc1ccc(C=C(C#N)C(=O)N2CCCC2)cc1` [8-I11, 3-[4-(methylsulfanyl)phenyl]-2-(pyrrolidine-1-carbonyl)prop-2-enenitrile], the figure is 106%; as for `C=CC(=O)NCc1ccc(C(=O)N2CCCC2C(=O)N(C)C)cc1` (stereo not drawn) [2-D22, N,N-dimethyl-1-{4-[(prop-2-enamido)methyl]benzoyl}pyrrolidine-2-carboxamide], 71.2%; as for `C=CC(=O)NCCc1ccc(S(C)(=O)=O)cc1` [2-A14, N-[2-(4-methanesulfonylphenyl)ethyl]prop-2-enamide], 93.7%. With `CC(Cl)C(=O)N1CC(Oc2ccc(C#N)cc2)C1` (stereo not drawn) [6-J15, 4-{[1-(2-chloropropanoyl)azetidin-3-yl]oxy}benzonitrile] the figure was 97.1%. Take `CCCCNC(=O)C(C#N)=Cc1cccc2ccccc12` [8-N13, N-butyl-2-cyano-3-(naphthalen-1-yl)prop-2-enamide]: the viability at 48 h, 25 µM amounted to 112%. In the case of `C=CC(=O)N1CCC(C(=O)Nc2nc3cc(F)c(C)cc3s2)CC1` [2-K15, N-(5-fluoro-6-methyl-1,3-benzothiazol-2-yl)-1-(prop-2-enoyl)piperidine-4-carboxamide], the viability at 48 h, 25 µM is 191%. As for `Cc1nc(CNC(=O)N2CCSSCC2)cs1` [10-O18, N-[(2-methyl-1,3-thiazol-4-yl)methyl]-1,2,5-dithiazepane-5-carboxamide], the figure is 112%.

For `CCc1ccc(-c2nn(-c3ccccc3)cc2C=C(C#N)C(N)=O)cc1` [8-O22, 2-cyano-3-[3-(4-ethylphenyl)-1-phenyl-1H-pyrazol-4-yl]prop-2-enamide], the viability at 48 h, 25 µM is 70.6%. With `CC(Cl)C(=O)N1CCOC(c2ccc(Cl)s2)C1` (stereo not drawn) [6-N07, 2-chloro-1-[2-(5-chlorothiophen-2-yl)morpholin-4-yl]propan-1-one], the viability at 48 h, 25 µM turned out to be 111%. `Cc1ccc([N+](=O)[O-])cc1N1C(=O)C=CC1=O` [10-O14, 1-(2-methyl-5-nitrophenyl)-2,5-dihydro-1H-pyrrole-2,5-dione]: the viability at 48 h, 25 µM was found to be 67.2%. In the case of `CC(Cl)C(=O)NC1CCCN(c2ncccn2)C1` (stereo not drawn) [7-C21, 2-chloro-N-[1-(pyrimidin-2-yl)piperidin-3-yl]propanamide], the viability at 48 h, 25 µM is 93.1%. With `Cc1ccccc1C(C)NC(=O)C(C#N)=Cc1ccco1` (stereo not drawn) [9-E06, 2-cyano-3-(furan-2-yl)-N-[1-(2-methylphenyl)ethyl]prop-2-enamide] the figure was 107%. In the case of `COc1ccccc1CN1C(=O)C=CC1=O` [10-P21, 1-[(2-methoxyphenyl)methyl]-2,5-dihydro-1H-pyrrole-2,5-dione], the viability at 48 h, 25 µM worked out at 105%. On to `CCOC(=O)c1c(NC(=O)CCl)sc2c1CCCC2` [6-I11, ethyl 2-(2-chloroacetamido)-4,5,6,7-tetrahydro-1-benzothiophene-3-carboxylate], for which the viability at 48 h, 25 µM came out at 44.9%. With `C=CC(=O)N1CCC(C(=O)N2CCn3ccnc32)CC1` [2-I04, 1-(4-{1H,2H,3H-[1,3]diazolo[1,2-a]imidazole-1-carbonyl}piperidin-1-yl)prop-2-en-1-one] the figure was 99.3%; with `CCCc1cc(NC(=O)CCl)n(-c2ccccc2)n1` [4-M03, 2-chloro-N-(1-phenyl-3-propyl-1H-pyrazol-5-yl)acetamide], 0.483%. Consider `COc1cc(C=C(C#N)C(N)=O)cc(OC)c1OC` [9-K13, 2-cyano-3-(3,4,5-trimethoxyphenyl)prop-2-enamide], for which the viability at 48 h, 25 µM worked out at 129%. Consider `Cc1cccc(C)c1NC(=O)CCl` [5-P20, 2-chloro-N-(2,6-dimethylphenyl)acetamide], for which the viability at 48 h, 25 µM is 112%.
